Measurements from patent publication US7626031B2, “Substituted 3-(diarylmethylene)indolin-2-ones and methods of their use” (Symphony Evolution, Inc., priority 2002, dated 2009).

Key:
[1] = target: Flt-1 (Homo sapiens, UniProt P17948); experiment: Kinase assay, Flt-1 (33P-ATP incorporation or luciferase-coupled ATP consumption); type: biochemical; settings: read-out: Flt1 IC50
Method: (§1) Kinase assays were performed by measurement of incorporation of γ-^33P ATP into immobilized myelin basic protein (MBP). […] Plates were washed 3× with 100 μl TBS. […] Compound dilutions were performed in DMSO and added to assay wells to a final DMSO concentration of 1%. Each data point was measured in duplicate, and at least two duplicate assays were performed for each individual compound determination. Enzyme was added to final concentrations of 10 nM or 20 nM, for example. A mixture of unlabeled ATP and γ-^33P ATP was added to start the reaction (2×10^6 cpm of γ-^33P ATP per well (3000 Ci/mmole) and either 10 μM or 30 μM unlabeled ATP, typically. The reactions were carried out for 1 hour at room temperature with shaking. Plates were washed 7× with TBS, followed by the addition of 50 μl/well scintillation fluid (Wallac). Plates were read using a Wallac Trilux counter. This is only one format of such assays, various other formats are possible, as known to one of ordinary skill in the art.
(§2) Tyrosine kinase activity is determined by 1) measurement of kinase-dependent ATP consumption by in the presence of a generic substrate such as, polyglutamic acid, tyrosine, 4:1 (pEY), by luciferase/luciferin-mediated chemiluminescence or; 2) incorporation of radioactive phosphate derived from ^33P-ATP into a generic substrate which has been adsorbed onto the well surface of polystyrene microtiter plates. Phosphorylated substrate products are quantified by scintillation spectrometry.
(§3) Kinase activity and compound inhibition are investigated using one or more assay formats. The ATP concentrations for each assay are selected to be close to the Michaelis-Menten constant (KM) for each individual kinase. Dose-response experiments are performed at 10 different inhibitor concentrations in a 384-well plate format. […] Exemplary kinase assays are described below. KDR Assay

[2] = target: Fyn (Homo sapiens, UniProt P06241); experiment: Kinase assay, Fyn; type: biochemical
Method: as §3

[3] = target: EphA2 (Homo sapiens, UniProt P29317); experiment: Kinase assay, EphA2 (33P-ATP incorporation or luciferase-coupled ATP consumption); type: biochemical
Chain of EphA2 (P29317 24-976, species assumed): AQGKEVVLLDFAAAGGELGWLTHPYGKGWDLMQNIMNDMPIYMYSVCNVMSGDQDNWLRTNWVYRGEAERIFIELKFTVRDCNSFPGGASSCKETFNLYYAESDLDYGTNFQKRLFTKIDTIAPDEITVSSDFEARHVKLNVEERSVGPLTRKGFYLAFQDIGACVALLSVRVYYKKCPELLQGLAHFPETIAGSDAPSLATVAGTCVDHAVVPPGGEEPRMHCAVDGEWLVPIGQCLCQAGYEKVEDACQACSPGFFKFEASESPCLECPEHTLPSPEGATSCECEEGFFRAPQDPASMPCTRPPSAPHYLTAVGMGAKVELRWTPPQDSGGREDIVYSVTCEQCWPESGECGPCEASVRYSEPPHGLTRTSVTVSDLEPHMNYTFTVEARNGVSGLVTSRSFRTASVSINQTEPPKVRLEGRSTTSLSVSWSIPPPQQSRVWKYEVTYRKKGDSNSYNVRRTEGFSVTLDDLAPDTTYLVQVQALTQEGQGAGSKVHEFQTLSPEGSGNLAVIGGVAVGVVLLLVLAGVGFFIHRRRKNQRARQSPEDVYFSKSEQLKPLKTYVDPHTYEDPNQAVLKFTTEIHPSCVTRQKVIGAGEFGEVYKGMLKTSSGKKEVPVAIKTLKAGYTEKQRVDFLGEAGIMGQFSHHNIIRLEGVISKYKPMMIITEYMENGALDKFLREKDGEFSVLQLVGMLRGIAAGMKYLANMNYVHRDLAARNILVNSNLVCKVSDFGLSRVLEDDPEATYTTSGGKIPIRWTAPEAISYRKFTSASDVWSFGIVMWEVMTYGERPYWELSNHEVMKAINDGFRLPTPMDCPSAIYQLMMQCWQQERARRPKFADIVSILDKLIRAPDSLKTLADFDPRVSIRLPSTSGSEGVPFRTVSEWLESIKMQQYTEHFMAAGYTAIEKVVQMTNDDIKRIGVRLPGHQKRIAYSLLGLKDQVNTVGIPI
Method: as §1, §2, §3

[4] = target: IRK (Homo sapiens, UniProt P06213); experiment: Kinase assay, IRK; type: biochemical
Chain of IRK (P06213 28-1382): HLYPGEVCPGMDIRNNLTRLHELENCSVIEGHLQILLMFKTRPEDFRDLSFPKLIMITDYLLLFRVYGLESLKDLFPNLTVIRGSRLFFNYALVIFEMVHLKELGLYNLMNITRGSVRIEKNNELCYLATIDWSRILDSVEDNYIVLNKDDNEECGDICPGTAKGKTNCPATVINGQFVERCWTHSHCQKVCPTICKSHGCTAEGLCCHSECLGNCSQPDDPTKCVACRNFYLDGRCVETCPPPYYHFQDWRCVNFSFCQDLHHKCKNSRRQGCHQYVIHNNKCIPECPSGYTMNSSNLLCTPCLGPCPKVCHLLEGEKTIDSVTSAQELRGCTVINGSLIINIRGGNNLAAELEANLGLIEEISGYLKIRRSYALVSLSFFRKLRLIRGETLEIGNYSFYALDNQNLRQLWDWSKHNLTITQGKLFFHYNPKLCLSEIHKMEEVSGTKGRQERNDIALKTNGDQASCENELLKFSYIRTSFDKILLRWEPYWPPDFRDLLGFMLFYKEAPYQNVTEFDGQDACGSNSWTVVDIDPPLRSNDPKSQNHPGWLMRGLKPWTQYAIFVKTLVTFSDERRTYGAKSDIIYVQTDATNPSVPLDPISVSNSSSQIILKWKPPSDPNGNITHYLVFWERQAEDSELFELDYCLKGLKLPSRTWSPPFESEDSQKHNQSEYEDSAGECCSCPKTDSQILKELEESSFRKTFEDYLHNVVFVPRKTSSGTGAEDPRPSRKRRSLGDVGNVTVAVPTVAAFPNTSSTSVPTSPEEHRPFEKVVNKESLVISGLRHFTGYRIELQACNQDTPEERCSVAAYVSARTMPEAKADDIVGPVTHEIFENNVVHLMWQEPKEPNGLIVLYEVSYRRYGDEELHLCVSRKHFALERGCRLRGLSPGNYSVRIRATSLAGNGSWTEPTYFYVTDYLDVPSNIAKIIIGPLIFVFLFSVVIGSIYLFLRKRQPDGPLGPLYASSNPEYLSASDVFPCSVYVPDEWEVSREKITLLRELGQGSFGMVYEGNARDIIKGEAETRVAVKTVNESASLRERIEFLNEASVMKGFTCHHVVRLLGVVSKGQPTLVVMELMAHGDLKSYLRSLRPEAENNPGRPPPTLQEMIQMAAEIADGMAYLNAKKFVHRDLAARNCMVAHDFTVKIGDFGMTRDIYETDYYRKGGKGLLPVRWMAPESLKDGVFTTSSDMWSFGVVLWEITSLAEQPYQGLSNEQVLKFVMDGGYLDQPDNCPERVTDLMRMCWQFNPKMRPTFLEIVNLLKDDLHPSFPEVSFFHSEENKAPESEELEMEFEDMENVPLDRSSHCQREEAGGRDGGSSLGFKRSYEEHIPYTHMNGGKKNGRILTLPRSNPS
Method: as §3

[5] = target: PDGFR alpha (Homo sapiens, UniProt P16234); experiment: Kinase assay, PDGFR alpha (33P-ATP incorporation or luciferase-coupled ATP consumption); type: biochemical; settings: read-out: PDGF-R-A IC50
Chain of PDGFR alpha (P16234 24-1089): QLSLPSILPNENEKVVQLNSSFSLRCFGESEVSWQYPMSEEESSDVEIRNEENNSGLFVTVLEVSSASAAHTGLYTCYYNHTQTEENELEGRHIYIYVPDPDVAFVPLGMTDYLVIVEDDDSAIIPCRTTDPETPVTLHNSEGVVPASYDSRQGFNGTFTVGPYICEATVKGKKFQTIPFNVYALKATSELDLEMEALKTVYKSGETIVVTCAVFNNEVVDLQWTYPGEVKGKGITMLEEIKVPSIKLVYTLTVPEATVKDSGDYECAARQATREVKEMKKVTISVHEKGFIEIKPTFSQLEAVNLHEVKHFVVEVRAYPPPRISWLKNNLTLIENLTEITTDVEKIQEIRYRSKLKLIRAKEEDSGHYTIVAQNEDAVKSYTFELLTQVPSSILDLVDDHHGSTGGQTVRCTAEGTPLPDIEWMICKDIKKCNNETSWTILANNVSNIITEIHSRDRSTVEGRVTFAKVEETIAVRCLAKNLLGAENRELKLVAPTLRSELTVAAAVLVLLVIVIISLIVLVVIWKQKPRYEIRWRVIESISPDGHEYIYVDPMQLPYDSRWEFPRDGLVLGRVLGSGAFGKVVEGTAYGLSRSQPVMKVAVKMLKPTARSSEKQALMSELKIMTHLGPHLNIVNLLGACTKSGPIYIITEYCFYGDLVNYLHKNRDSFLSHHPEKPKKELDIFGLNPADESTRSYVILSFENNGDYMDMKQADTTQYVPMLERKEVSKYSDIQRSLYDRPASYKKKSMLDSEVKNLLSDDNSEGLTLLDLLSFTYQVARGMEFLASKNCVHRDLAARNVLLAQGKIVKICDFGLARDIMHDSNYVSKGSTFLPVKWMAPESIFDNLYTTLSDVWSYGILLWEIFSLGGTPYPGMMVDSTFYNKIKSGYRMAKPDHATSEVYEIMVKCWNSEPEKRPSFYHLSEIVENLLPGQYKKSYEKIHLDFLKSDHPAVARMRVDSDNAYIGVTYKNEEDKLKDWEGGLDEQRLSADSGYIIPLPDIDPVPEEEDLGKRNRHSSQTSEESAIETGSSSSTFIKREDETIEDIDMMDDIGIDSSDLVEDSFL
Method: as §1, §2, §3

[6] = target: EGFR (Homo sapiens, UniProt P00533); experiment: Kinase assay, EGFR (33P-ATP incorporation or luciferase-coupled ATP consumption); type: biochemical
Chain of EGFR (P00533 25-1210, species assumed): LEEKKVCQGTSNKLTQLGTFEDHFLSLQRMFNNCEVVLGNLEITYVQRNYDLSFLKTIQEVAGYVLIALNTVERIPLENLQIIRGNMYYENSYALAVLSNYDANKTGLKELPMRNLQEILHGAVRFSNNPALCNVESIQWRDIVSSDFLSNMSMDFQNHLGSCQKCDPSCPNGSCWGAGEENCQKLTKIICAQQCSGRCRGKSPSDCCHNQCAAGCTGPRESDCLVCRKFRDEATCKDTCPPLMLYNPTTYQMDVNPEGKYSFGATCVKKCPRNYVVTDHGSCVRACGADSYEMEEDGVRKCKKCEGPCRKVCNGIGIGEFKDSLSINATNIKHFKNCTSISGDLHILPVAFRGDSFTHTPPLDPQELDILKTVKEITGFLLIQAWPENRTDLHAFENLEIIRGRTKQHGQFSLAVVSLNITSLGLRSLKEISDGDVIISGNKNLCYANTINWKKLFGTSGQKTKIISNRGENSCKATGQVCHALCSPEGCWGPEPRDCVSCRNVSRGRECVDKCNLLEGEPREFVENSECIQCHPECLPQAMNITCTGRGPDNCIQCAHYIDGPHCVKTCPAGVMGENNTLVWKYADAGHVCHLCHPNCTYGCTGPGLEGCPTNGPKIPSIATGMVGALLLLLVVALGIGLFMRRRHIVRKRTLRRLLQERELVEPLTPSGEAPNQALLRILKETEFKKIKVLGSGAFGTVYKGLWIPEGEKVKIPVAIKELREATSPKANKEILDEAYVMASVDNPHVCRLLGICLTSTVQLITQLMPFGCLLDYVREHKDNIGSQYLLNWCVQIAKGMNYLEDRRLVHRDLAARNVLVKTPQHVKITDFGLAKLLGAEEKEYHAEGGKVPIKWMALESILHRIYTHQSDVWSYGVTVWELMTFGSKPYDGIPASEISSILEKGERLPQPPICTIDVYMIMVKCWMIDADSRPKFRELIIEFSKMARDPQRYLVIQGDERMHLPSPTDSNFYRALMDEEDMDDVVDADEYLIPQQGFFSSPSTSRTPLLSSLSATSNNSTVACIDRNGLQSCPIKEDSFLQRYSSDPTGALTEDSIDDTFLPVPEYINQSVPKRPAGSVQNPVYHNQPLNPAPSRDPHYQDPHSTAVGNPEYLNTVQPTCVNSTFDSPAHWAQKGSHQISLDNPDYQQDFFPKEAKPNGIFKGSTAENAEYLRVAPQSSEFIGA
Method: as §1, §2, §3

[7] = target: T1, KDR (baculovirus expressed human KDR kinase domain D807-V1356) (Homo sapiens, UniProt P35968); experiment: biochemical
T1 construct: human KDR kinase domain D807-V1356; host or cells: baculovirus expression system
T1 sequence (P35968 807-1356): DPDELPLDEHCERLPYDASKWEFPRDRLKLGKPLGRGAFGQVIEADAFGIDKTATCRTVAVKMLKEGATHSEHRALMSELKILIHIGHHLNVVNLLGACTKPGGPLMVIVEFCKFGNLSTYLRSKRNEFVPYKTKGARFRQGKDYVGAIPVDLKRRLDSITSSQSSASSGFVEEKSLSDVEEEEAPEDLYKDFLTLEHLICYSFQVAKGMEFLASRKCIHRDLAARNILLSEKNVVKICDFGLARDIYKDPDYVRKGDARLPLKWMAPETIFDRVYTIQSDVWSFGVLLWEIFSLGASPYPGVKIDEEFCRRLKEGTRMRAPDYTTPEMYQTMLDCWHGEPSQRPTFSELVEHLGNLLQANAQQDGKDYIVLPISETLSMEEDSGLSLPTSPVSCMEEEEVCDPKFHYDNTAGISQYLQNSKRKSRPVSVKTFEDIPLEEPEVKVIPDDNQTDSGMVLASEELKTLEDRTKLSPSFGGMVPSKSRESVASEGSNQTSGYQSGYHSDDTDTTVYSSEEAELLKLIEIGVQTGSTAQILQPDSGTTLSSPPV
Method: as §3
KDR biochemical activity was assessed using a Luciferase-Coupled Chemiluminescent Kinase assay (LCCA) format. Kinase activity was measured as the percent ATP remaining following the kinase reaction. Remaining ATP was detected by luciferase-luciferin-coupled chemiluminescence. […] The mixture is incubated at ambient temperature for 4 hours after which 20 uL luciferase-luciferin mix is added and the chemiluminescent signal read using a Wallac Victor^2 reader.

Row | Compound | IC50 [1] [nM] | IC50 [2] [nM] | IC50 [3] [nM] | IC50 [4] [nM] | IC50 [5] [nM] | IC50 [6] [nM] | IC50 [7] [nM]
1 | O=C1Nc2ccc(NC3CCNCC3)cc2/C1=C(\c1ccccc1)c1nc2ccccc2[nH]1 [Entry 22, (3Z)-3-[1H-benzimidazol-2-yl(phenyl)methylidene] -5-(piperidin-4-ylamino)-1,3-dihydro-2H-indol-2-one] | 50 to 500 | < 50 | 50 to 500 | 50 to 500 | < 50 | 500 to 5000 | < 50
2 | CCN1CCC(Nc2ccc3c(c2)/C(=C(\c2cccc([N+](=O)[O-])c2)c2nc4ccccc4[nH]2)C(=O)N3)CC1 [Entry 19, (3Z)-3-[1H-benzimidazol-2-yl(3-nitrophenyl)methylidene]-5-[(1-ethylpiperidin-4-yl)amino]-1,3-dihydro-2H-indol-2-one] | 50 to 500 | 50 to 500 | 500 to 5000 | 500 to 5000 | < 50 | 500 to 5000 | < 50
3 | CCN1CCC(Nc2ccc3c(c2)/C(=C(\c2ccc(OC)cc2)c2ncc[nH]2)C(=O)N3)CC1 [Entry 15, (3Z)-5-[(1-ethylpiperidin-4-yl)amino]-3-{1H-imidazol-2-yl[4-(methyloxy)phenyl]methylidene}-1,3-dihydro-2H-indol-2-one] | 50 to 500 | < 50 | 500 to 5000 | 500 to 5000 | < 50 | 500 to 5000 | < 50
4 | O=C1Nc2ccc(NC3CC4CCC(C3)N4)cc2/C1=C(\c1ccccc1)c1nc2ccccc2[nH]1 (centres unmarked) [Entry 31, (3Z)-5-(8-azabicyclo[3.2.1]oct-3-ylamino)-3-[1H-benzimidazol-2-yl(phenyl)methylidene]-1,3-dihydro-2H-indol-2-one] | 500 to 5000 | 50 to 500 | 500 to 5000 | 500 to 5000 | 50 to 500 | 500 to 5000 | 50 to 500
5 | CN(C)CCN1CCC(Nc2ccc3c(c2)/C(=C(\c2ccccc2)c2nc4ccccc4[nH]2)C(=O)N3)CC1 [Entry 29, (3Z)-3-[1H-benzimidazol-2-yl(phenyl)methylidene]-5-({1-[2-(dimethylamino)ethyl]piperidin-4-yl}amino)-1,3-dihydro-2H-indol-2-one] | 500 to 5000 | 50 to 500 | 500 to 5000 | 500 to 5000 | 50 to 500 | 500 to 5000 | < 50

The remaining lines, values ahead:

Row | IC50 [1] [nM] | IC50 [2] [nM] | IC50 [3] [nM] | IC50 [4] [nM] | IC50 [5] [nM] | IC50 [6] [nM] | IC50 [7] [nM] | Compound
6 | 50 to 500 | < 50 | 500 to 5000 | 500 to 5000 | < 50 | 50 to 500 | < 50 | CCN1CCC(Nc2ccc3c(c2)/C(=C(\c2ccc(N)cc2)c2nc4ccccc4[nH]2)C(=O)N3)CC1 [Entry 11, (3Z)-3-[(4-aminophenyl)(1H-benzimidazol-2-yl)methylidene]-5-[(1-ethylpiperidin-4-yl)amino]1,3-dihydro-2H-indol-2-one]
7 | 50 to 500 | 50 to 500 | > 5000 | > 5000 | < 50 | 500 to 5000 | < 50 | CCN1CCC(Nc2ccc3c(c2)/C(=C(\c2ccc([N+](=O)[O-])cc2)c2nc4ccccc4[nH]2)C(=O)N3)CC1 [Entry 7, (3Z)-3-(1H-benzimidazol-2-yl(4-nitrophenyl)methylidene]-5-[(1-ethylpiperidin-4-yl)amino]-1,3-dihydro-2H-indol-2-one]
8 | 50 to 500 | 50 to 500 | 500 to 5000 | 500 to 5000 | < 50 | 500 to 5000 | < 50 | CCN1CCC(Nc2ccc3c(c2)/C(=C(\c2cccc(N)c2)c2nc4ccccc4[nH]2)C(=O)N3)CC1 [Entry 21, (3Z)-3-[(3-aminophenyl) (1H-benzimidazol-2-yl)methylidene]-5-[(1-ethylpiperidin-4-yl)amino]-1,3-dihydro-2H-indol-2-one]
